Measured values from US9133206B2, “Benzodiazepine and pyridodiazepine derivatives” (AbbVie Inc., priority 2010, dated 2015).
pEC50: −log10 of the molar value.

System: SK-N-SH human neuroblastoma cells
Assay: Serum Deprivation/JC-1 Mitochondrial Membrane Potential (MMP) Assay
Assay type: cell-based
Settings: for pEC50: serum deprivation ~18 hours, JC-1 ratio normalized to peak value for 10 μM dimebolin, single curve fit to mean data of n=2-3; for Emax: read-out: JC-1 max %; for activation at 3 µM: single dose 3 μM, JC-1 ratio normalized to peak value for 10 μM dimebolin (n=2-4), read-out: JC-1 max % (@ 3 μM)
Summary of the method: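 SK-N-SH cells serum-deprived ~18 h with compound, then stained with JC-1 for 40 min at 37 °C; red (560/595 nm) to green (485/535 nm) ratio reports membrane potential. Response normalized to peak from 10 μM dimebolin; EC50 from fit to mean of n=2–3, or single-dose 3 μM; DMSO ≤1%.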

[1] = Homo sapiens, SK-N-SH, percent maximal intensity in JC-1 ratio normalized to peak value for 10 μM dimebolin, serum deprivation
[2] = Homo sapiens, serum deprivation

| Compound | pEC50 (Homo sapiens, SK-N-SH, 18 h) | Emax [1] [%] | activation at 3 µM [2] [%] | also measured |
| --- | --- | --- | --- | --- |
| O=C(C1CCC1)N1Cc2ccccc2N2CCN(Cc3ccccc3)CC2C1 (stereo not shown) [Example 115, (3-benzyl-1,2,3,4,4a,5-hexahydropyrazino[1,2-a][1,4]benzodiazepin-6(7H)-yl)(cyclobutyl)methanone] | 5.90 | 177 |  |  |
| CC1CC1C(=O)N1Cc2ccccc2N2CCN(Cc3ccccc3)CC2C1 (stereo not shown) [Example 116, (3-benzyl-1,2,3,4,4a,5-hexahydropyrazino[1,2-a][1,4]benzodiazepin-6(7H)-yl)(2-methylcyclopropyl)methanone] |  |  | 198 |  |
| O=C(CC(F)(F)F)N1Cc2ccccc2N2CCN(Cc3ccccc3)CC2C1 (stereo not shown) [Example 117, 1-(3-benzyl-1,2,3,4,4a,5-hexahydropyrazino[1,2-a][1,4]benzodiazepin-6(7H)-yl)-3,3,3-trifluoropropan-1-one] |  |  | 70 |  |
| O=C(C1CCCO1)N1Cc2ccccc2N2CCN(Cc3ccccc3)CC2C1 (stereo not shown) [Example 118, (3-benzyl-1,2,3,4,4a,5-hexahydropyrazino[1,2-a][1,4]benzodiazepin-6(7H)-yl)(tetrahydrofuran-2-yl)methanone] |  |  | 84 |  |
| COc1ccc(CN2Cc3ccccc3N3CCN(Cc4ccccc4)CC3C2)cc1C (stereo not shown) [Example 119, 3-benzyl-6-(4-methoxy-3-methylbenzyl)-1,2,3,4,4a,5,6,7-octahydropyrazino[1,2-a][1,4]benzodiazepine] | 5.40 | 172 |  |  |
| Cc1cc(CN2Cc3ccccc3N3CCN(Cc4ccccc4)CC3C2)oc1C (stereo not shown) [Example 120, 3-benzyl-6-[(4,5-dimethyl-2-furyl)methyl]-1,2,3,4,4a,5,6,7-octahydropyrazino[1,2-a][1,4]benzodiazepine] |  |  | -5 |  |
| CCOc1ccc(CN2Cc3ccccc3N3CCN(Cc4ccccc4)CC3C2)cc1 (stereo not shown) [Example 121, 3-benzyl-6-(4-ethoxybenzyl)-1,2,3,4,4a,5,6,7-octahydropyrazino[1,2-a][1,4]benzodiazepine] | 5.38 | 167 |  |  |
| Cc1ccc(CN2Cc3ccccc3N3CCN(Cc4ccccc4)CC3C2)s1 (stereo not shown) [Example 122, 3-benzyl-6-[(5-methyl-2-thienyl)methyl]-1,2,3,4,4a,5,6,7-octahydropyrazino[1,2-a][1,4]benzodiazepine] | 5.47 | 133 |  |  |
| Brc1ccc(CN2Cc3ccccc3N3CCN(Cc4ccccc4)CC3C2)cc1 (stereo not shown) [Example 123, 3-benzyl-6-(4-bromobenzyl)-1,2,3,4,4a,5,6,7-octahydropyrazino[1,2-a][1,4]benzodiazepine] |  |  |  | JC-1 max % (percent maximal intensity in JC-1 ratio normalized to peak value for 10 μM dimebolin, serum deprivation): 186%; pEC50: 5.46 |
| c1ccc(CN2CCN3c4ccccc4CN(Cc4ccc5ccccc5c4)CC3C2)cc1 (stereo not shown) [Example 124, 3-benzyl-6-(2-naphthylmethyl)-1,2,3,4,4a,5,6,7-octahydropyrazino[1,2-a][1,4]benzodiazepine] | 5.46 | 193 |  |  |
| c1ccc(CN2CCN3c4ccccc4CN(CC4CCCC4)CC3C2)cc1 (stereo not shown) [Example 125, 3-benzyl-6-(cyclopentylmethyl)-1,2,3,4,4a,5,6,7-octahydropyrazino[1,2-a][1,4]benzodiazepine] | 5.37 | 98 |  |  |
| c1ccc(CN2CCN3c4ccccc4CN(Cc4ccc5ccccc5n4)CC3C2)cc1 (stereo not shown) [Example 126, 3-benzyl-6-(quinolin-2-ylmethyl)-1,2,3,4,4a,5,6,7-octahydropyrazino[1,2-a][1,4]benzodiazepine] | 5.72 | 150 |  |  |
| CCc1ccc(CN2Cc3ccccc3N3CCN(Cc4ccccc4)CC3C2)o1 (stereo not shown) [Example 127, 3-benzyl-6-[(5-ethyl-2-furyl)methyl]-1,2,3,4,4a,5,6,7-octahydropyrazino[1,2-a][1,4]benzodiazepine] |  |  | 26 |  |
| N#Cc1ccc(CN2Cc3ccccc3N3CCN(Cc4ccccc4)CC3C2)cc1 (stereo not shown) [Example 128, 4-[(3-benzyl-1,2,3,4,4a,5-hexahydropyrazino[1,2-a][1,4]benzodiazepin-6(7H)-yl)methyl]benzonitrile] | 5.37 | 168 |  |  |
| CCCCN1Cc2ccccc2N2CCN(Cc3ccccc3)CC2C1 (stereo not shown) [Example 129, 3-benzyl-6-butyl-1,2,3,4,4a,5,6,7-octahydropyrazino[1,2-a][1,4]benzodiazepine] |  |  | 40 |  |
| Clc1ccc(CN2Cc3ccccc3N3CCN(Cc4ccccc4)CC3C2)cc1 (stereo not shown) [Example 130, 3-benzyl-6-(4-chlorobenzyl)-1,2,3,4,4a,5,6,7-octahydropyrazino[1,2-a][1,4]benzodiazepine] | 5.40 | 181 |  |  |
| Cc1ccccc1CN1Cc2ccccc2N2CCN(Cc3ccccc3)CC2C1 (stereo not shown) [Example 131, 3-benzyl-6-(2-methylbenzyl)-1,2,3,4,4a,5,6,7-octahydropyrazino[1,2-a][1,4]benzodiazepine] | 5.49 | 144 |  |  |
| Brc1ccccc1CN1Cc2ccccc2N2CCN(Cc3ccccc3)CC2C1 (stereo not shown) [Example 132, 3-benzyl-6-(2-bromobenzyl)-1,2,3,4,4a,5,6,7-octahydropyrazino[1,2-a][1,4]benzodiazepine] | 5.48 | 192 |  |  |

| Compound | pEC50 (Homo sapiens, SK-N-SH, 18 h) | Emax [1] [%] | activation at 3 µM [2] [%] | also measured |
| --- | --- | --- | --- | --- |
| COc1ccccc1CN1Cc2ccccc2N2CCN(Cc3ccccc3)CC2C1 (stereo not shown) [Example 133, 3-benzyl-6-(2-methoxybenzyl)-1,2,3,4,4a,5,6,7-octahydropyrazino[1,2-a][1,4]benzodiazepine] | 5.44 | 163 |  |  |
| COc1ccc(CN2Cc3ccccc3N3CCN(Cc4ccccc4)CC3C2)cc1 (stereo not shown) [Example 134, 3-benzyl-6-(4-methoxybenzyl)-1,2,3,4,4a,5,6,7-octahydropyrazino[1,2-a][1,4]benzodiazepine] | 5.45 | 163 |  |  |
| COc1cccc(CN2Cc3ccccc3N3CCN(Cc4ccccc4)CC3C2)c1 (stereo not shown) [Example 135, 3-benzyl-6-(3-methoxybenzyl)-1,2,3,4,4a,5,6,7-octahydropyrazino[1,2-a][1,4]benzodiazepine] | 5.38 | 154 |  |  |
| Brc1cccc(CN2Cc3ccccc3N3CCN(Cc4ccccc4)CC3C2)c1 (stereo not shown) [Example 136, 3-benzyl-6-(3-bromobenzyl)-1,2,3,4,4a,5,6,7-octahydropyrazino[1,2-a][1,4]benzodiazepine] | 5.66 | 172 |  |  |
| Cc1ccc(CN2Cc3ccccc3N3CCN(Cc4ccccc4)CC3C2)cc1 (stereo not shown) [Example 137, 3-benzyl-6-(4-methylbenzyl)-1,2,3,4,4a,5,6,7-octahydropyrazino[1,2-a][1,4]benzodiazepine] | 5.48 | 143 |  |  |
| c1ccc(CN2CCN3c4ccccc4CN(Cc4cccc5ccccc45)CC3C2)cc1 (stereo not shown) [Example 138, 3-benzyl-6-(1-naphthylmethyl)-1,2,3,4,4a,5,6,7-octahydropyrazino[1,2-a][1,4]benzodiazepine] | 5.74 | 203 |  |  |
| Clc1ccccc1CN1Cc2ccccc2N2CCN(Cc3ccccc3)CC2C1 (stereo not shown) [Example 139, 3-benzyl-6-(2-chlorobenzyl)-1,2,3,4,4a,5,6,7-octahydropyrazino[1,2-a][1,4]benzodiazepine] | 5.50 | 145 |  |  |
| Clc1cccc(CN2Cc3ccccc3N3CCN(Cc4ccccc4)CC3C2)c1 (stereo not shown) [Example 140, 3-benzyl-6-(3-chlorobenzyl)-1,2,3,4,4a,5,6,7-octahydropyrazino[1,2-a][1,4]benzodiazepine] | 5.44 | 189 |  |  |
| CC(C)(C)CN1Cc2ccccc2N2CCN(Cc3ccccc3)CC2C1 (stereo not shown) [Example 141, 3-benzyl-6-(2,2-dimethylpropyl)-1,2,3,4,4a,5,6,7-octahydropyrazino[1,2-a][1,4]benzodiazepine] |  |  | 12 |  |
| Cc1ccsc1CN1Cc2ccccc2N2CCN(Cc3ccccc3)CC2C1 (stereo not shown) [Example 142, 3-benzyl-6-[(3-methyl-2-thienyl)methyl]-1,2,3,4,4a,5,6,7-octahydropyrazino[1,2-a][1,4]benzodiazepine] |  |  | 13 |  |
| CC(C)CCN1Cc2ccccc2N2CCN(Cc3ccccc3)CC2C1 (stereo not shown) [Example 143, 3-benzyl-6-(3-methylbutyl)-1,2,3,4,4a,5,6,7-octahydropyrazino[1,2-a][1,4]benzodiazepine] |  |  | 30 |  |
| c1ccc(CN2CCN3c4ccccc4CN(CC4CCCCC4)CC3C2)cc1 (stereo not shown) [Example 144, 3-benzyl-6-(cyclohexylmethyl)-1,2,3,4,4a,5,6,7-octahydropyrazino[1,2-a][1,4]benzodiazepine] | 5.44 | 132 |  |  |
| Cc1cccc(CN2Cc3ccccc3N3CCN(Cc4ccccc4)CC3C2)c1 (stereo not shown) [Example 145, 3-benzyl-6-(3-methylbenzyl),-1,2,3,4,4a,5,6,7-octahydropyrazino[1,2-a][1,4]benzodiazepine] | 5.50 | 151 |  |  |
| N#Cc1cccc(CN2Cc3ccccc3N3CCN(Cc4ccccc4)CC3C2)c1 (stereo not shown) [Example 146, 3-[(3-benzyl-1,2,3,4,4a,5-hexahydropyrazino[1,2-a][1,4]benzodiazepin-6(7H)-yl)methyl]benzonitrile] | 5.66 | 182 |  |  |
| c1ccc(CN2CCN3c4ccccc4CN(Cc4cccs4)CC3C2)cc1 (stereo not shown) [Example 147, 3-benzyl-6-(2-thienylmethyl)-1,2,3,4,4a,5,6,7-octahydropyrazino[1,2-a][1,4]benzodiazepine] |  |  | 1.7 |  |
| CC(C)CN1Cc2ccccc2N2CCN(Cc3ccccc3)CC2C1 (stereo not shown) [Example 148, 3-benzyl-6-isobutyl-1,2,3,4,4a,5,6,7-octahydropyrazino[1,2-a][1,4]benzodiazepine] |  |  | 38 |  |
| COCCN(C)C(=O)N1Cc2ccccc2N2CCN(Cc3ccccc3)CC2C1 (stereo not shown) [Example 149, 3-benzyl-N-(2-methoxyethyl)-N-methyl-1,2,3,4,4a,5-hexahydropyrazino[1,2-a][1,4]benzodiazepine-6(7H)-carboxamide] |  |  | 218 |  |
